What is called IC50 is the midpoint of a concentration-inhibition curve.

What all share (type): cell-based
Test [1] addresses T1, human P2X3 receptor (hP2X3) (Homo sapiens, UniProt P56373).
T1 construct: expressed in transfected cells; host or cells: Xenopus oocytes (cRNA microinjection)
T1 sequence (P56373 1-397): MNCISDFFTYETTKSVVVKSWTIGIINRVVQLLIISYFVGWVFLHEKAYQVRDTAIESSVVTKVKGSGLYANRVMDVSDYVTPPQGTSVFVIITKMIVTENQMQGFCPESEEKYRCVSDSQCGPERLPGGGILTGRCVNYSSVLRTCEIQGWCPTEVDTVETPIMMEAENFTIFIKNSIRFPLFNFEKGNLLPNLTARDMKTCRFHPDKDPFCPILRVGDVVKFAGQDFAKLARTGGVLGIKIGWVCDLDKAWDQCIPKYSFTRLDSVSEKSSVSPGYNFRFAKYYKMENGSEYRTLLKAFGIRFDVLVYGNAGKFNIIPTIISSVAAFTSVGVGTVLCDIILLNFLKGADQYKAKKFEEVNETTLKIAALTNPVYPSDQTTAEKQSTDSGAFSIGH
In words: Two-electrode voltage clamp assay, recombinant hP2X3 receptor in Xenopus oocytes. The conditions noted are these: for inhibition at 1 µM: 1 μM compound, 2 μM ATP, mean±SEM n≥3 (footnote b), read-out: hP2X3 % inhibitory effect at 1 μM; for inhibition at 1 µM / IC50: Xenopus oocytes; for IC50: 2 μM ATP-evoked current, mean±SEM n≥3 (footnote d). The method, then: (§1) 1-1. Two-Electrode Voltage Clamp Assay for Recombinant mP2X1 and hP2X3 Receptors
(§2) Xenopus oocytes were isolated and incubated with 270 U/mg of collagenase at 23 to 24° C. for 1.5 hours. Defolliculated oocytes were kept in Barth's solution at 18° C. After 1 day, the defolliculated oocytes were each microinjected cytosolically with mP2X1 and human P2X3 receptor cRNA ([…], 1 μg/mL), incubated for 24 hours at 18° C. in Barth's solution. The cRNA-injected oocytes were kept for 12 days at 4° C. ATP-activated membrane currents (Vh=−70 mV) were recorded from the cRNA-injected oocytes using the two-electrode voltage clamp technique (Axoclamp 2B amplifier). Voltage recording ([…] tip resistance) and current-recording microelectrodes (5 MΩ tip resistance) were filled with 3.0 M KCl. Oocytes were placed in an electrophysiological chamber continuously superfused with Ringer's solution (5 mL/min, at 18° C.) containing 110 mM NaCl, 2.5 mM KCl, 5 mM HEPES and 1.8 mM BaCl2, with pH adjusted to 7.5. To induce an evoked current, 2 μM ATP was superfused for 60 to 120 seconds and then washed for 20 min. For data analysis, the ATP-evoked current was normalized at pH 7.5. The compounds were introduced to the fixed oocytes 20 minutes prior to ATP exposure in the electrophysiological chamber. IC50 values (the concentration of the compound required to inhibit the ATP response by 50%) were determined by Hill plots designed using the Chemical Formula: log(I/Imax−1), where I is the current evoked by ATP in the presence of an antagonist. Data are presented as mean±SEM (n≥3) from different batches of oocytes.
(§3) In order to investigate the structure-activity relationship (SAR) of the compounds synthesized in the present invention, the antagonistic activity was evaluated by a two-electrode voltage clamp (TEVC) assay in Xenopus oocytes expressing the recombinant mP2X1 or hP2X3, respectively. The hP2X7R antagonistic activity was assessed using an ethidium ion accumulation assay in human HEK293 cells stably expressing the recombinant human P2X7R.
In general terms: In two-electrode clamp one electrode senses voltage and the other passes current.

Test [2] has as its target T2, human P2X7 receptor (hP2X7) (Homo sapiens, UniProt Q99572).
T2 construct: expressed in transfected cells
T2 sequence (Q99572 1-595): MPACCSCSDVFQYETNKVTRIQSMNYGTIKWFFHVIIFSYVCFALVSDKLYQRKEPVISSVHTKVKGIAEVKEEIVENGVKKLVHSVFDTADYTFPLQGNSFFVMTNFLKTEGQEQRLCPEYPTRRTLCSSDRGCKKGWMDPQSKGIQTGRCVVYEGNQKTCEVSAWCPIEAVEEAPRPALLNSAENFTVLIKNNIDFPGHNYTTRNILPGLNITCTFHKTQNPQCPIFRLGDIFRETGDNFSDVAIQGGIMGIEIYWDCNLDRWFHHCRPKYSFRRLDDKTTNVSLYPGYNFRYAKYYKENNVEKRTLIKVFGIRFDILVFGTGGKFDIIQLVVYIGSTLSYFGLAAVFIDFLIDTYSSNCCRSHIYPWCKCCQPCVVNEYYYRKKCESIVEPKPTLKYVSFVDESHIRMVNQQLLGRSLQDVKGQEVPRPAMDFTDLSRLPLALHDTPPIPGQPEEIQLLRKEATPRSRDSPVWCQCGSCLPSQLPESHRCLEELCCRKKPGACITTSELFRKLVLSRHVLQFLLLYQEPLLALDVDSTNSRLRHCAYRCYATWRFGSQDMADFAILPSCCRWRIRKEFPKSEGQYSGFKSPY
In words: Ethidium bromide accumulation assay in hP2X7-expressing HEK293 cells. The conditions noted are these: 10 μM compound with BzATP. Here is the method: 1-2. Ethidium Bromide Accumulation Assay in hP2X-Expressing HEK293 Cells
HEK293 cells that are stably transfected with the human P2X7 receptor (P2X7R) were kept under a humidified atmosphere of 5% CO2 at 37° C. in DMEM supplemented with 10% (v/v) FBS, 2 mM L-glutamine and antibiotics (50 U/mL penicillin and 50 μg/ml streptomycin). BzATP-induced pore formation was measured using a fluorescence plate reader by measuring cellular absorption of ethidium in the hP2X7-expressing HEK293 cells. The hP2X7-expressing HEK293 cells were washed once with an appropriate assay buffer, and the buffer was also removed before subsequent analysis. All studies were performed at room temperature and the final assay volume was 100 μL. The cells were resuspended at 2.5×10^6 cells/mL in assay buffers consisting of 10 mM HEPES, 5 mM N-methyl-D-glucamine, 5.6 mM KCl, 10 mM D-glucose and 0.5 mM CaCl2 (pH 7.4) and supplemented with 280 mM sucrose or 140 mM NaCl.
In order to determine the antagonistic activity of the 5-hydroxyl-pyridine derivatives of the present invention and the reference compound (AZD9056), these compounds were added to the cells at a concentration of 10 μM with BzATP without pre-incubation. The cells were incubated for 2 hours under a humidified atmosphere of 5% CO2 at 37° C., and the absorption of ethidium dye was observed by measuring fluorescence with a Bio-Tek instrument FL600 fluorescent plate reader (excitation wavelength of 530 nm and emission wavelength of 590 nm). The results are expressed as a percentage relative to the maximum cumulative amount of ethidium bromide when stimulated with BzATP alone.
as §3

The target of test [3] is T3, mouse P2X1 receptor (mP2X1) (Mus musculus, UniProt P51576).
T3 construct: expressed in transfected cells; host or cells: Xenopus oocytes (cRNA microinjection)
T3 sequence (P51576 1-399): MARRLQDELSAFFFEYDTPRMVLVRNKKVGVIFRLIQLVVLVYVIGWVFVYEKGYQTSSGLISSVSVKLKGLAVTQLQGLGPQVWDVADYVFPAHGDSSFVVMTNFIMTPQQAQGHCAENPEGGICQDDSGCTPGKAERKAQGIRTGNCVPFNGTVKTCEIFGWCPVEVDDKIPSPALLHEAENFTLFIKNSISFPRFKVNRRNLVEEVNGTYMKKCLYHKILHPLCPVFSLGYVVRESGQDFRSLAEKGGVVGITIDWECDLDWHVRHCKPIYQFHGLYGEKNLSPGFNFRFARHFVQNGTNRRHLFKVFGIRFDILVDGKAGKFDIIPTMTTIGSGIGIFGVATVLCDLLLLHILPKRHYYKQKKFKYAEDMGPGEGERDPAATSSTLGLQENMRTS
Put plainly: Two-electrode voltage clamp assay, recombinant mP2X1 receptor in Xenopus oocytes. Conditions: for mP2X1 % inhibitory effect at 10 μM / inhibition at 10 µM: 10 μM compound, 2 μM ATP, mean±SEM n≥3 (footnote c); for inhibition at 10 µM: read-out: mP2X1 % inhibitory effect at 10 μM. Here is the method:
as §1, §2, §3

A value given as a limit tells only on which side of the number the result lay.

As to `COc1ccc(CCc2nc(C)c(O)c(C#N)c2C(=O)O)cc1` [Compound 16, 4-Cyano-5-hydroxy-2-(4-methoxyphenethyl)-6-methylnicotinic acid], the inhibition at 1 µM in test [1] amounted to 33.3%. For the same compound, in test [2], the “hP2X7 % inhibition of ethidium bromide accumulation” value (“hP2X7 % inhibition” for short) was “Inactive”. Also, the “mP2X1 % inhibitory effect at 10 μM” value in test [3] is given as “Inactive^c”.

As to `CCc1nc(CCc2ccc(OC)cc2)c(C(=O)O)c(C(=O)O)c1O` [Compound 13c, 6-Ethyl-5-hydroxy-2-(4-methoxyphenethyl)pyridine-3,4-dicarboxylic acid], the half-inhibitory concentration (IC50) in test [1] was determined as 0.55 ± 0.093 µM. In test [2], the “hP2X7 % inhibition” value is “inactive”. Besides, in test [3], the inhibition at 10 µM is 48.1 ± 8.8%.

On to `CCCc1nc(Cc2cccc(Oc3ccccc3)c2)c(C)c(CNS(C)(=O)=O)c1O` [Compound 43, N-((3-Hydroxy-5-methyl-6-(3-phenoxybenzyl)-2-propylpyridin-4-yl)methyl)methanesulfonamide], for which the inhibition at 1 µM in test [1] was less than 50%. Besides, in test [2], the “hP2X7 % inhibition” value was “inactive”. Besides, the inhibition at 10 µM in test [3] amounted to 43.1 ± 12.9%.

Turning to `COc1ccc(CCc2nc(C)c(O)c3c(=O)[nH][nH]c(=O)c23)cc1` [Compound 19, 8-Hydroxy-5-(4-methoxyphenethyl)-7-methyl-2,3-dihydropyrido[3,4-d]pyridazine-1,4-dione], the inhibition at 1 µM in test [1] came to 16.3%. The “hP2X7 % inhibition” value in test [2] is “inactive”. For the same compound, in test [3], the “mP2X1 % inhibitory effect at 10 μM” value was “Inactive^c”.

For the compound `CCCc1nc(Cc2cccc(Oc3ccccc3)c2)c(C)c(/C=C/C(=O)O)c1O` [Compound 35, (E)-3-(3-Hydroxy-5-methyl-6-(3-phenoxybenzyl)-2-propylpyridin-4-yl)acrylic acid], the inhibition at 1 µM in test [1] is less than 50%. In test [2], the “hP2X7 % inhibition” value was “inactive”. Moreover, in test [3], the “mP2X1 % inhibitory effect at 10 μM” value is reported as “Inactive^c”.

As for `COc1ccc(CCc2nc(CCc3ccccc3)c(O)c(C(=O)O)c2C(=O)O)cc1` [Compound 13i, 5-Hydroxy-2-(4-methoxyphenethyl)-6-phenethylpyridine-3,4-dicarboxylic acid], in test [1], the IC50 was 0.742 ± 0.073 µM. In addition, in test [2], the “hP2X7 % inhibition” value was “inactive”. The “mP2X1 % inhibitory effect at 10 μM” value in test [3] is on record as “Inactive^c”.

With `COc1ccc(CCc2nc(C)c(O)c(-c3nnn[nH]3)c2C(=O)O)cc1` [Compound 17, 5-Hydroxy-2-(4-methoxyphenethyl)-6-methyl-4-(1H-tetrazol-5-yl)nicotinic acid], in test [1], the inhibition at 1 µM was determined as 27.3 ± 1.8%. Moreover, the “hP2X7 % inhibition” value in test [2] was “inactive”. The “mP2X1 % inhibitory effect at 10 μM” value in test [3] was “Inactive^c”.

On to `COc1ccc(CCc2nc(C)c(O)c3c2C(=O)OC3=O)cc1` [Compound 18, 7-Hydroxy-4-(4-methoxyphenethyl)-6-methylfuro[3,4-c]pyridine-1,3-dione], for which the inhibition at 1 µM in test [1] is 27.8%. In test [2], the “hP2X7 % inhibition” value is “inactive”. In addition, the inhibition at 10 µM in test [3] was found to be 25.3%.

Regarding `COc1ccc(CCc2nc(C(C)C)c(O)c(C(=O)O)c2C(=O)O)cc1` [Compound 13f, 5-Hydroxy-6-isopropyl-2-(4-methoxyphenethyl)pyridine-3,4-dicarboxylic acid], the IC50 in test [1] turned out to be 0.466 µM. For the same compound, the “hP2X7 % inhibition” value in test [2] was “inactive”. The inhibition at 10 µM in test [3] turned out to be 37.3 ± 8.2%.

As for `CCCc1nc(Cc2cccc(Oc3ccccc3)c2)c(C)c(C#N)c1O` [Compound 38, 3-Hydroxy-5-methyl-6-(3-phenoxybenzyl)-2-propylisonicotinonitrile], the inhibition at 1 µM in test [1] is less than 50%. Further, the “hP2X7 % inhibition” value in test [2] was “inactive”. For the same compound, the “mP2X1 % inhibitory effect at 10 μM” value in test [3] was “inactive^c”.

On to `CCCc1nc(Cc2cccc(Oc3ccccc3)c2)c(C)c(CN)c1O` [Compound 41, 4-(Aminomethyl)-5-methyl-6-(3-phenoxybenzyl)-2-propylpyridin-3-ol], for which the inhibition at 1 µM in test [1] was less than 50%. Also, in test [2], the “hP2X7 % inhibition” value was “inactive”. Also, in test [3], the “mP2X1 % inhibitory effect at 10 μM” value is “inactive^c”.

Regarding `COc1ccc(CCc2ncc(O)c(C(=O)O)c2C(=O)O)cc1` [Compound 13a, 5-Hydroxy-2-(4-methoxyphenethyl)pyridine-3,4-dicarboxylic acid], the IC50 in test [1] was 0.561 ± 0.099 µM; in test [3] (2 μM ATP-evoked current, mean±SEM n≥3 (footnote d), read-out: mP2X1 IC50) it was 0.236 ± 0.078 µM. In addition, the “selectivity for hP2X3R to mP2X1R” value in test [1] (hP2X3R versus mP2X1R) is “non-selective”. Further, the “hP2X7 % inhibition” value in test [2] is listed as “Inactive”.

Regarding `COc1ccc(CCc2nc(Cc3ccccc3)c(O)c(C(=O)O)c2C(=O)O)cc1` [Compound 13h, 6-Benzyl-5-hydroxy-2-(4-methoxyphenethyl)pyridine-3,4-dicarboxylic acid], in test [1], the IC50 is 0.751 ± 0.083 µM. Also, the “hP2X7 % inhibition” value in test [2] is “Inactive”. Further, the “mP2X1 % inhibitory effect at 10 μM” value in test [3] was “Inactive^c”.

(Values after patent US11319289B2, “5-hydroxy pyridine-based compound for use as P2X1 and P2X3 receptor antagonist and pharmaceutical composition comprising same” (GWANGJU INSTITUTE OF SCIENCE AND TECHNOLOGY, priority 2017, dated 2022).)
